Starred links: 1 amine or outer side, 2 acyl side, 3 side chain; linkers in the order of their positions; H or OH if unused. Positions of bridges follow the written chain, without caps; N, C: chain ends. Non-standard residues stand in square brackets, D forms with d. Residues, ends and D or L forms follow the SMILES beside them. *: point of attachment. NMeF = CN[C@@H](Cc1ccccc1)C(=O)O; NMeGABA = CN(CCCC(=O)[*:2])[*:1]; NMeI = CC[C@H](C)[C@H](NC)C(=O)O; NMeT = CN[C@H](C(=O)O)[C@@H](C)O; hPhe = N[C@@H](CCc1ccccc1)C(=O)O; NMeβAla = CN(CCC(=O)[*:2])[*:1]; NMeL = CN[C@@H](CC(C)C)C(=O)O; dNMeV = CN[C@@H](C(=O)O)C(C)C; NMeV = CN[C@H](C(=O)O)C(C)C; NMeA = CN[C@@H](C)C(=O)O; Piperidide = C1CCN(*)CC1; Abu = CC[C@H](N)C(=O)O; NBuGly = CCCCNCC(=O)O; Sar = CNCC(=O)O; tBu = CC(C)(C)*
How the values were obtained:
[1] = Metabolic stability test: liver microsomal stability assay; format: in vitro ADME, mouse; details: mouse liver microsomes 0.5 mg protein/mL, compound 1 µM; for microsomal CLint at 1 µM: male, pH 7.4, presence of NADPH, read-out: Mouse Hepatic Microsome CLh,int NADPH(+); for Mouse Hepatic Microsome CLh,int NADPH(-): absence of NADPH
[2] = Membrane permeability test using Caco-2 cells with preincubation; format: in vitro ADME; details: Caco-2; preincubation 20 to 24 hours; Apical FaSSIF/HBSS pH 6.0, Basal HBSS 4% BSA pH 7.4; 180 minutes; read-out: Caco2 Papp
[3] = tested on: Caco-2 cells; test: as above; format: in vitro ADME; details: Caco-2 cells, preincubation 20 to 24 hours; apical FaSSIF/HBSS 1% DMSO pH 6.0, basal HBSS 4% BSA pH 7.4; basal sample at 180 minutes

Row | microsomal CLint at 1 µM [1] | Mouse Hepatic Microsome CLh,int NADPH(-) [1] | Papp A→B [2] | Caco2 Papp (10^-6 cm/sec) [3] | SMILES
1 | 36.3 µL/min/mg | 31.5 µL/min/mg Protein | 0.81 ×10⁻⁶ cm/s | 0.81 10^-6 cm/sec | CC(C)C[C@@H]1NC(=O)[C@H](CC(C)C)N(C)C(=O)[C@H](C(C)C)N(C)C(=O)[C@H](CCc2ccccc2)NC(=O)[C@H]([C@@H](C)O)N(C)C(=O)[C@@H](C(C)C)NC(=O)C[C@@H](C(=O)N2CCCCC2)NC(=O)[C@H](C(C)C)N(C)C(=O)[C@H](CC(C)C)NC(=O)[C@H](Cc2ccccc2)N(C)C(=O)[C@@H]2CCCN2C(=O)[C@H](CC(C)C)N(C)C(=O)CN(C)C1=O [pd107] ([dV][NMeT][hPhe][NMeV][NMeL]L[Sar][NMeL]P[NMeF]L[NMeV]D-Piperidide; lactam N-13)
2 | 40.6 µL/min/mg | 30.3 µL/min/mg Protein | 0.83 ×10⁻⁶ cm/s | 0.83 10^-6 cm/sec | CC[C@@H]1NC(=O)[C@H](Cc2ccccc2)N(C)C(=O)[C@H](C)N(C)C(=O)[C@H](CC(C)C)N(C)C(=O)[C@H](CC(C)C)NC(=O)CCCN(C)C(=O)C[C@@H](C(=O)N2CCCCC2)NC(=O)[C@H](CC(C)C)N(C)C(=O)[C@H](C)N(C)C(=O)[C@H]([C@@H](C)O)NC(=O)[C@H](CC(C)C)N(C)C(=O)[C@H](COC(C)(C)C)NC(=O)[C@H](Cc2ccccc2)N(C)C1=O [pd109] ([NMeGABA]L[NMeL][NMeA][NMeF][Abu][NMeF]S(tBu)[NMeL]T[NMeA][NMeL]D-Piperidide; lactam N-13)
3 | 38.5 µL/min/mg | 30.5 µL/min/mg Protein | 0.43 ×10⁻⁶ cm/s | 0.43 10^-6 cm/sec | CC[C@H](C)[C@@H]1NC(=O)[C@H](C)N(C)C(=O)[C@H]([C@@H](C)O)NC(=O)[C@H](Cc2ccccc2)N(C)C(=O)[C@H](COC(C)(C)C)NC(=O)[C@H](CC(C)C)N(C)C(=O)CN(C)C(=O)[C@H](Cc2ccccc2)N(C)C(=O)[C@H]([C@@H](C)CC)NC(=O)[C@H](CC(C)C)N(C)C(=O)CCN(C)C(=O)C[C@@H](C(=O)N2CCCCC2)NC(=O)[C@H](CC(C)C)N(C)C1=O [pd110] ([NMeβAla][NMeL]I[NMeF][Sar][NMeL]S(tBu)[NMeF]T[NMeA]I[NMeL]D-Piperidide; lactam N-13)
4 | 18.7 µL/min/mg | 28.4 µL/min/mg Protein | 0.04 ×10⁻⁶ cm/s | 0.04 10^-6 cm/sec | CCCCN1CC(=O)N[C@@H](CC(C)C)C(=O)N(C)[C@@H]([C@@H](C)CC)C(=O)N(C)[C@@H]([C@@H](C)O)C(=O)N(C)[C@@H](Cc2ccccc2)C(=O)N[C@@H]([C@@H](C)CC)C(=O)N(C)[C@@H](CC(C)C)C(=O)N[C@H](C(=O)N2CCCCC2)CC(=O)N(C)[C@@H](C)C(=O)N[C@@H](CC(C)C)C(=O)N(C)[C@@H](CC(C)C)C(=O)N(C)[C@@H](Cc2ccccc2)C(=O)N[C@@H](CC)C1=O [pd111] ([NMeA]L[NMeL][NMeF][Abu][NBuGly]L[NMeI][NMeT][NMeF]I[NMeL]D-Piperidide; lactam N-13)

More lines, now with the values behind:

Row | SMILES | microsomal CLint at 1 µM [1] | Mouse Hepatic Microsome CLh,int NADPH(-) [1] | Papp A→B [2] | Caco2 Papp (10^-6 cm/sec) [3]
5 | CCCCN1CC(=O)N[C@@H](COC(C)(C)C)C(=O)N(C)[C@@H](Cc2ccccc2)C(=O)N[C@@H](CC(C)C)C(=O)N(C)[C@@H](C(C)C)C(=O)N[C@H](C(=O)N2CCCCC2)CC(=O)N[C@H](C(C)C)C(=O)N(C)[C@@H](Cc2ccccc2)C(=O)N[C@@H](CC(C)C)C(=O)N(C)[C@@H](C(C)C)C(=O)N(C)[C@@H](CC(C)C)C(=O)N[C@@H]([C@@H](C)O)C(=O)N(C)[C@@H](CC(C)C)C1=O [pd100] ([dV][NMeF]L[NMeV][NMeL]T[NMeL][NBuGly]S(tBu)[NMeF]L[NMeV]D-Piperidide; lactam N-13) | 39.6 µL/min/mg | 28.4 µL/min/mg Protein | < 0.12 ×10⁻⁶ cm/s | <0.12 10^-6 cm/sec
6 | CC[C@@H]1NC(=O)[C@H](Cc2ccccc2)N(C)C(=O)[C@H]([C@@H](C)CC)NC(=O)[C@H](CC(C)C)N(C)C(=O)[C@H](CC(C)C)NC(=O)CCN(C)C(=O)C[C@@H](C(=O)N2CCCCC2)NC(=O)[C@H](CC(C)C)N(C)C(=O)[C@H](C)N(C)C(=O)[C@H]([C@@H](C)O)NC(=O)[C@H](CC(C)C)N(C)C(=O)[C@H](C(C)C)NC(=O)[C@H](Cc2ccccc2)N(C)C1=O [pd101] ([NMeβAla]L[NMeL]I[NMeF][Abu][NMeF]V[NMeL]T[NMeA][NMeL]D-Piperidide; lactam N-13) | 41.1 µL/min/mg | 31.5 µL/min/mg Protein | 0.16 ×10⁻⁶ cm/s | 0.16 10^-6 cm/sec
7 | CC[C@H](C)[C@@H]1NC(=O)[C@H](C)N(C)C(=O)[C@H]([C@@H](C)O)NC(=O)[C@H](Cc2ccccc2)N(C)C(=O)[C@H](COC(C)(C)C)NC(=O)[C@H](CC(C)C)N(C)C(=O)[C@H](CCc2ccccc2)NC(=O)[C@@H]2CCCN2C(=O)[C@H]([C@@H](C)CC)NC(=O)[C@H](CC(C)C)N(C)C(=O)CCCN(C)C(=O)C[C@@H](C(=O)N2CCCCC2)NC(=O)[C@H](CC(C)C)N(C)C1=O [pd102] ([NMeGABA][NMeL]IP[hPhe][NMeL]S(tBu)[NMeF]T[NMeA]I[NMeL]D-Piperidide; lactam N-13) | 32.9 µL/min/mg | 25.1 µL/min/mg Protein | 0.09 ×10⁻⁶ cm/s | 0.09 10^-6 cm/sec
8 | CCCCN1CC(=O)N[C@@H]([C@@H](C)CC)C(=O)N(C)[C@@H](CC(C)C)C(=O)N[C@H](C(=O)N2CCCCC2)CC(=O)N(C)[C@@H](C)C(=O)N(C)[C@@H](CC(C)C)C(=O)N[C@@H]([C@@H](C)O)C(=O)N(C)[C@@H](Cc2ccccc2)C(=O)N[C@@H](CC)C(=O)N(C)[C@@H](Cc2ccccc2)C(=O)N[C@@H](CC(C)C)C(=O)N(C)[C@@H]([C@@H](C)CC)C(=O)N[C@@H](CC(C)C)C1=O [pd103] ([NMeA][NMeL]T[NMeF][Abu][NMeF]L[NMeI]L[NBuGly]I[NMeL]D-Piperidide; lactam N-13) | 25.5 µL/min/mg | 21.3 µL/min/mg Protein | 0.08 ×10⁻⁶ cm/s | 0.08 10^-6 cm/sec
9 | CC[C@H](C)[C@@H]1NC(=O)[C@H](CC(C)C)N(C)C(=O)[C@H](CC(C)C)NC(=O)[C@H](C)N(C)C(=O)C[C@@H](C(=O)N2CCCCC2)NC(=O)[C@H](CC(C)C)NC(=O)[C@@H]2CCCN2C(=O)[C@H](CC(C)C)N(C)C(=O)[C@H]([C@@H](C)O)NC(=O)[C@H]([C@@H](C)CC)N(C)C(=O)[C@H](Cc2ccccc2)N(C)C(=O)[C@H](C)NC(=O)[C@H](Cc2ccccc2)N(C)C1=O [pd104] ([NMeA]L[NMeL]I[NMeF]A[NMeF][NMeI]T[NMeL]PLD-Piperidide; lactam N-13) | 36 µL/min/mg | 36.2 µL/min/mg Protein | 0.2 ×10⁻⁶ cm/s | 0.20 10^-6 cm/sec
10 | CC[C@@H]1NC(=O)[C@H](Cc2ccccc2)N(C)C(=O)[C@H](CC(C)C)NC(=O)CNC(=O)[C@H]([C@@H](C)O)N(C)C(=O)[C@H](CC(C)C)N(C)C(=O)[C@H]([C@@H](C)CC)NC(=O)[C@H](Cc2ccccc2)N(C)C(=O)CN(C)C(=O)C[C@@H](C(=O)N2CCCCC2)NC(=O)[C@H](C(C)C)N(C)C(=O)[C@H](CC(C)C)NC(=O)[C@H](C)N(C)C1=O [pd105] ([Sar][NMeF]I[NMeL][NMeT]GL[NMeF][Abu][NMeA]L[NMeV]D-Piperidide; lactam N-13) | 28.9 µL/min/mg | 22.7 µL/min/mg Protein | 0.11 ×10⁻⁶ cm/s | 0.11 10^-6 cm/sec
11 | CC[C@@H]1NC(=O)[C@H](C(C)C)N(C)C(=O)[C@H](CC(C)C)NC(=O)[C@H](CC(C)C)N(C)C(=O)[C@H]([C@@H](C)O)NC(=O)CN(C)C(=O)[C@H]([C@@H](C)CC)NC(=O)[C@H](Cc2ccccc2)N(C)C(=O)[C@H](CC(C)C)N(C)C(=O)C[C@@H](C(=O)N2CCCCC2)NC(=O)[C@H](Cc2ccccc2)N(C)C(=O)[C@H](COC(C)(C)C)NC(=O)[C@@H]2CCCN2C1=O [pd106] ([NMeL][NMeF]I[Sar]T[NMeL]L[NMeV][Abu]PS(tBu)[NMeF]D-Piperidide; lactam N-13) | 32.7 µL/min/mg | 37.4 µL/min/mg Protein | 0.24 ×10⁻⁶ cm/s | 0.24 10^-6 cm/sec
12 | CC(C)C[C@@H]1NC(=O)[C@H](C(C)C)N(C)C(=O)[C@H](Cc2ccccc2)N(C)C(=O)[C@H](CC(C)C)NC(=O)[C@H](CC(C)C)N(C)C(=O)[C@H](C)N(C)C(=O)[C@H]([C@@H](C)O)NC(=O)[C@H](CC(C)C)N(C)C(=O)[C@H](C(C)C)N(C)C(=O)[C@H](CC(C)C)NC(=O)[C@H](Cc2ccccc2)N(C)C(=O)[C@@H](C(C)C)N(C)C(=O)C[C@@H](C(=O)N2CCCCC2)NC1=O [pd108] ([dNMeV][NMeF]L[NMeV][NMeL]T[NMeA][NMeL]L[NMeF][NMeV]LD-Piperidide; lactam N-13) | 39.9 µL/min/mg | 35.5 µL/min/mg Protein | 0.03 ×10⁻⁶ cm/s | 0.03 10^-6 cm/sec

Source: EP4768499A1, “MACROCYCLIC PEPTIDE COMPOUND HAVING CELL MEMBRANE PERMEABILITY AND METABOLIC STABILITY, AND LIBRARY CONTAINING SAME” (Chugai Seiyaku Kabushiki Kaisha, priority 2023, dated 2025)
